Laboratory results published in PubChem BioAssay AID330 (DTP/NCI, 2004).
Values joined by “and” are separate entries in the source; they are usually repeats but may differ in a detail not shown here. Equal entries are not always repeated. Toxic doses and inconclusive results are not listed. How the source made its calls: active means survival T/C of 150% or more; inactive means T/C below 125% in these data.

System: P388 leukemia ip, CD2F1 mice, survival T/C
Experiment: NCI In Vivo Anticancer Drug Screen. Data for tumor model P388 Leukemia (intraperitoneal) in CD2F1 (CDF1) mice
Conditions: endpoint: median survival time, higher = longer survival
In short: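 Mice carrying the transplanted tumor received test compound or vehicle. Survival was recorded in each group, and the value is the treated-group measurement divided by that of the vehicle-treated control group.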

[1] = dose: 60.0 mg/kg/injection, schedule: Q01DX005 (ip), vehicle: Klucel (hydroxypropylcellulose) (HPC)
[2] = dose: 120.0 mg/kg/injection, schedule: Q01DX005 (ip), vehicle: Klucel (hydroxypropylcellulose) (HPC)
[3] = dose: 240.0 mg/kg/injection, schedule: Q01DX005 (ip), vehicle: Klucel (hydroxypropylcellulose) (HPC)
[4] = dose: 50.0 mg/kg/injection, schedule: Q01DX005 (ip), vehicle: Klucel (hydroxypropylcellulose) (HPC)
[5] = dose: 100.0 mg/kg/injection, schedule: Q01DX005 (ip), vehicle: Klucel (hydroxypropylcellulose) (HPC)
[6] = dose: 200.0 mg/kg/injection, schedule: Q01DX005 (ip), vehicle: Klucel (hydroxypropylcellulose) (HPC)
[7] = dose: 50.0 mg/kg/injection, schedule: Q01DX005 (ip), vehicle: saline
[8] = dose: 100.0 mg/kg/injection, schedule: Q01DX005 (ip), vehicle: saline

Measured: T/C

COc1ccc(C(=O)CCC2(C)OCCO2)cc1OC
inactive: [1] 101 % of control | [2] 108 % of control | [3] 106 % of control

COC12c3c(C)cc(O)c4c(=O)occ(c34)C(=O)C1C13COC(=O)c4c(O)cc(C)c(c41)C(=O)C2C3OC(C)=O (stereo not given)
inactive: dose: 25.0 mg/kg/injection, schedule: Q01DX009 (ip), vehicle: saline with Tween-80 107 % of control and 119 % of control | dose: 50.0 mg/kg/injection, schedule: Q01DX009 (ip), vehicle: saline with Tween-80 111 % of control and 122 % of control | dose: 100.0 mg/kg/injection, schedule: Q01DX009 (ip), vehicle: saline with Tween-80 103 % of control and 120 % of control and 123 % of control

CCN(CC)C1=Nc2ccccc2N(c2ccccc2)C(SC)=C1
inactive: [4] 111 % of control | [5] 100 % of control | [6] 97 % of control

CC(=NCc1ccccc1)NO
inactive: [7] 97 % of control | [8] 96 % of control

N#CC1=C(N)OC(C2CC2)=C(C#N)C1c1cccs1 (stereo not given)
inactive: [1] 104 % of control | [2] 100 % of control | [3] 96 % of control

COc1ccc(N=Nc2c(C)nn(C(N)=S)c2C)cc1
inactive: dose: 100.0 mg/kg/injection, schedule: Q04DX002 (ip), vehicle: Klucel (hydroxypropylcellulose) (HPC) 93 % of control | dose: 200.0 mg/kg/injection, schedule: Q04DX002 (ip), vehicle: Klucel (hydroxypropylcellulose) (HPC) 92 % of control | dose: 400.0 mg/kg/injection, schedule: Q04DX002 (ip), vehicle: Klucel (hydroxypropylcellulose) (HPC) 94 % of control

CCN(CC)C(=S)S
inactive: dose: 100.0 mg/kg/injection, schedule: Q04DX003 (ip), vehicle: saline sonified 95 % of control | dose: 200.0 mg/kg/injection, schedule: Q04DX003 (ip), vehicle: saline sonified 100 % of control | dose: 400.0 mg/kg/injection, schedule: Q04DX003 (ip), vehicle: saline sonified 90 % of control

Cc1ccc2c(=O)[nH]cnc2c1
inactive: dose: 12.5 mg/kg/injection, schedule: Q01DX009 (ip), vehicle: Klucel (hydroxypropylcellulose) (HPC) 100 % of control | dose: 25.0 mg/kg/injection, schedule: Q01DX009 (ip), vehicle: Klucel (hydroxypropylcellulose) (HPC) 98 % of control and 100 % of control | dose: 50.0 mg/kg/injection, schedule: Q01DX009 (ip), vehicle: Klucel (hydroxypropylcellulose) (HPC) 99 % of control and 103 % of control | dose: 100.0 mg/kg/injection, schedule: Q01DX009 (ip), vehicle: Klucel (hydroxypropylcellulose) (HPC) 101 % of control and 110 % of control and 97 % of control | dose: 200.0 mg/kg/injection, schedule: Q01DX009 (ip), vehicle: Klucel (hydroxypropylcellulose) (HPC) 113 % of control

CC12CCCN1C(=O)C1(C)CCCN1C2=O (stereo not given)
inactive: dose: 100.0 mg/kg/injection, schedule: Q04DX003 (ip), vehicle: saline 101 % of control | dose: 200.0 mg/kg/injection, schedule: Q04DX003 (ip), vehicle: saline 98 % of control | dose: 400.0 mg/kg/injection, schedule: Q04DX003 (ip), vehicle: saline 97 % of control

NC(=S)c1cc(Cl)cc(Cl)c1N
inactive: dose: 3.75 mg/kg/injection, schedule: Q01DX005 (ip), vehicle: Klucel (hydroxypropylcellulose) (HPC) 100 % of control | dose: 7.5 mg/kg/injection, schedule: Q01DX005 (ip), vehicle: Klucel (hydroxypropylcellulose) (HPC) 98 % of control | dose: 15.0 mg/kg/injection, schedule: Q01DX005 (ip), vehicle: Klucel (hydroxypropylcellulose) (HPC) 99 % of control and 96 % of control | dose: 30.0 mg/kg/injection, schedule: Q01DX005 (ip), vehicle: Klucel (hydroxypropylcellulose) (HPC) 94 % of control | [1] 92 % of control

CC(=O)CC(c1ccccc1)c1c(O)c2ccccc2oc1=O (stereo not given)
inactive: dose: 0.02 mg/kg/injection, schedule: Q01DX009 (ip), vehicle: Klucel (hydroxypropylcellulose) (HPC) 93 % of control and 96 % of control | dose: 0.05 mg/kg/injection, schedule: Q01DX009 (ip), vehicle: Klucel (hydroxypropylcellulose) (HPC) 100 % of control | dose: 0.05 mg/kg/injection, schedule: Q01DX009 (ip), vehicle: saline 99 % of control | dose: 0.06 mg/kg/injection, schedule: Q01DX009 (ip), vehicle: other 99 % of control | dose: 0.1 mg/kg/injection, schedule: Q01DX009 (ip), vehicle: Klucel (hydroxypropylcellulose) (HPC) 96 % of control and 97 % of control | dose: 0.1 mg/kg/injection, schedule: Q01DX009 (ip), vehicle: saline 96 % of control | dose: 0.13 mg/kg/injection, schedule: Q01DX009 (ip), vehicle: other 92 % of control | dose: 0.2 mg/kg/injection, schedule: Q01DX009 (ip), vehicle: Klucel (hydroxypropylcellulose) (HPC) 95 % of control and 96 % of control | dose: 0.2 mg/kg/injection, schedule: Q01DX009 (ip), vehicle: saline 109 % of control and 92 % of control | dose: 0.25 mg/kg/injection, schedule: Q01DX009 (ip), vehicle: other 95 % of control | dose: 0.4 mg/kg/injection, schedule: Q01DX009 (ip), vehicle: Klucel (hydroxypropylcellulose) (HPC) 91 % of control and 95 % of control | dose: 0.4 mg/kg/injection, schedule: Q01DX009 (ip), vehicle: saline 98 % of control and 90 % of control | dose: 0.5 mg/kg/injection, schedule: Q01DX009 (ip), vehicle: saline with Tween-80 97 % of control | dose: 0.8 mg/kg/injection, schedule: Q01DX009 (ip), vehicle: saline 101 % of control and 91 % of control | dose: 1.0 mg/kg/injection, schedule: Q01DX001 (ip), vehicle: saline + alcohol 101 % of control | dose: 1.0 mg/kg/injection, schedule: Q01DX009 (ip), vehicle: saline with Tween-80 93 % of control | dose: 2.0 mg/kg/injection, schedule: Q01DX001 (ip), vehicle: saline + alcohol 101 % of control | dose: 4.0 mg/kg/injection, schedule: Q01DX001 (ip), vehicle: saline + alcohol 95 % of control | dose: 4.0 mg/kg/injection, schedule: Q04HX002 (ip), vehicle: saline with Tween-80 96 % of control | dose: 8.0 mg/kg/injection, schedule: Q04HX002 (ip), vehicle: saline with Tween-80 99 % of control and 86 % of control | dose: 16.0 mg/kg/injection, schedule: Q04HX002 (ip), vehicle: saline with Tween-80 106 % of control and 96 % of control

CO[C@H]1C[C@H]2CC[C@@]1(C)C2(C)C
inactive: dose: 60.0 mg/kg/injection, schedule: Q01DX005 (ip), vehicle: saline 104 % of control | dose: 120.0 mg/kg/injection, schedule: Q01DX005 (ip), vehicle: saline 104 % of control | dose: 240.0 mg/kg/injection, schedule: Q01DX005 (ip), vehicle: saline 100 % of control

Oc1c(Cl)cc(Cl)cc1/C=N/NC(=S)Nc1cc(C(F)(F)F)cc(C(F)(F)F)c1
inactive: dose: 12.5 mg/kg/injection, schedule: Q01DX009 (ip), vehicle: olive oil, sesame oil, peanut oil 105 % of control | dose: 25.0 mg/kg/injection, schedule: Q01DX009 (ip), vehicle: olive oil, sesame oil, peanut oil 107 % of control | dose: 50.0 mg/kg/injection, schedule: Q01DX009 (ip), vehicle: olive oil, sesame oil, peanut oil 120 % of control | dose: 50.0 mg/kg/injection, schedule: Q01DX009 (oral), vehicle: saline with Tween-80 92 % of control | dose: 100.0 mg/kg/injection, schedule: Q01DX009 (ip), vehicle: olive oil, sesame oil, peanut oil 86 % of control | dose: 100.0 mg/kg/injection, schedule: Q01DX009 (oral), vehicle: saline with Tween-80 108 % of control | dose: 200.0 mg/kg/injection, schedule: Q01DX009 (oral), vehicle: saline with Tween-80 99 % of control | dose: 400.0 mg/kg/injection, schedule: Q01DX009 (oral), vehicle: saline with Tween-80 90 % of control

CCC(C)C1C(=O)O[B-](F)(F)/[N+]1=C\c1ccccc1 (stereo not given)
inactive: dose: 100.0 mg/kg/injection, schedule: Q04DX003 (ip), vehicle: Klucel (hydroxypropylcellulose) (HPC) 104 % of control | dose: 200.0 mg/kg/injection, schedule: Q04DX003 (ip), vehicle: Klucel (hydroxypropylcellulose) (HPC) 109 % of control

CC(NC(=O)C(Cl)Cl)C(=O)O (stereo not given)
inactive: [4] 96 % of control | [5] 99 % of control | [6] 96 % of control

CCOC(=O)C1CSCN1 (stereo not given)
inactive: dose: 25.0 mg/kg/injection, schedule: Q01DX009 (ip), vehicle: saline 97 % of control | dose: 50.0 mg/kg/injection, schedule: Q01DX009 (ip), vehicle: saline 95 % of control | dose: 100.0 mg/kg/injection, schedule: Q01DX009 (ip), vehicle: saline 100 % of control | dose: 200.0 mg/kg/injection, schedule: Q01DX009 (ip), vehicle: saline 100 % of control

CCOc1ccn(CC(=O)c2ccc(Cl)s2)c(=O)n1
inactive: dose: 100.0 mg/kg/injection, schedule: Q04DX003 (ip), vehicle: saline with Tween-80 95 % of control | dose: 200.0 mg/kg/injection, schedule: Q04DX003 (ip), vehicle: saline with Tween-80 90 % of control | dose: 400.0 mg/kg/injection, schedule: Q04DX003 (ip), vehicle: saline with Tween-80 104 % of control

COC(=O)NC1CC(C2CO2)OC1=O (stereo not given)
inactive: [7] 101 % of control | [8] 99 % of control | dose: 200.0 mg/kg/injection, schedule: Q01DX005 (ip), vehicle: saline 109 % of control
